Patent US11478451B1, “Macrocyclic chlorine substituted indole derivatives” (Bayer Aktiengesellschaft, priority 2017, dated 2022)
Counter-ions that a name gives are not always drawn. Like-named read-outs stand apart in the source and are kept apart here.

Experiments:
SUDHL5 cells [1] = assay: Induction of caspase-3/7 activity (Caspase-Glo 3/7), SUDHL5; format: cell-based; conditions: EC50, median, SUDHL5, 3 h treatment
Procedure, shortened: (§1)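 Steps: seed the diffuse large B-cell lymphoma cells, leaving rim wells unused; add compounds; incubate 3 h at 37 °C; add Caspase-Glo 3/7 reagent; read; subtract medium-only background.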

SUDHL10 cells [2] = assay: Induction of caspase-3/7 activity (Caspase-Glo 3/7), SUDHL10; format: cell-based; conditions: EC50, median, SUDHL10, 3 h treatment
Procedure, shortened: as §1

AMO-1 cells = assay: Antiproliferation assay (CellTiter-Glo, 72 h), AMO-1; format: cell-based; conditions: IC50, median, AMO-1, 72 h, read-out: Antiproli AMO-1 [M] median
Procedure, shortened: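 Luminescent ATP-based viability (CellTiter-Glo) measured after 72 h of compound treatment at 37 °C. A day 0 plate recorded at time zero served as the starting reference for proliferation.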

HMC-1-8 cells = assay: Antiproliferation assay (CellTiter-Glo, 72 h), HMC-1-8; format: cell-based; conditions: IC50, median, HMC-1-8, 72 h, read-out: Antiproli HMC-1-8 [M] median
Method: Assessment of the Anti-Proliferative Effect of Compounds in Different Cell Lines
The impact of compounds on the proliferation of different cell lines was assessed using the CellTiter-Glo® Luminescent Cell Viability reagent from Promega (G7573).
In parallel, cells were plated in a reference (day 0) plate for time zero determination.
Rim wells were excluded. The cells were incubated for 72 h hours in a humidified incubator at 37° C. The day 0 plate was measured by adding 30 μL/well of CTG solution (CellTiter-Glo® Luminescent Cell Viability reagent, Promega G7573) to time zero wells in the reference plate followed by a 10 minutes incubation and luminescence reading at 0.1 ms. using the PHERAstar FS microplate reader (BMG Labtech).
After 72 h incubation, the treated plates were measured in the same way as the day 0 plate mentioned above.

SUDHL5 cells [3] = assay: Induction of cytotoxicity (CellTiter-Glo, 5 h), SUDHL5; conditions: SUDHL5, 5 h
Method: (§2) Therefore, cytotoxicity assays were run in parallel in SUDHL5 and SUDHL10 cells.
(§3) The different cell lines were plated in culture medium (RPMI 1640 [GIBCO #22400-089] supplemented with 10% Fetal Bovine Serum) at a density of 3,300 cells in 30 μL/well in a sterile, solid black, flat bottom, polystyrene, TC-treated 384-well microplate (Corning #3571) using Multidrop Combi Reagent Dispenser. As a control, medium without cells was also added to the plate. Cells were incubated in a humidified incubator at 37° C. overnight. […] Rim wells were excluded. The cells were incubated for 5 h hours in a humidified incubator at 37° C. After this incubation, 30 μL of CellTiter-Glo® Luminescent Cell Viability reagent (Promega, G7573) was added to each well using the Multidrop Combi Reagent Dispenser, followed by 15 min incubation on a shaker at room temperature. Finally, luminescence was read at 0.1 ms, with a gain of 3000 using the PHERAstar FS microplate reader (BMG Labtech).

SUDHL10 cells [4] = assay: Induction of cytotoxicity (CellTiter-Glo, 5 h), SUDHL10; conditions: SUDHL10, 5 h
Method: as §2, §3

[5] = Homo sapiens, SU-DHL-5, 5 h, read-out: Cytotox SUDHL5 [M] (median), IC50, median
[6] = Homo sapiens, SU-DHL10, 5 h, read-out: Cytotox SUDHL10 [M] (median), IC50, median
[7] = read-out: Cytotox SUDHL5 [M] (median), IC50, median

| SMILES | IC50 (HMC-1-8 cells; 72 h) | EC50 (SUDHL10 cells [2]; Homo sapiens, SU-DHL10, 3 h) | IC50 (AMO-1 cells; Homo sapiens, AMO1, 72 h) | IC50 (SUDHL10 cells [4]; [6]) | other results |
| --- | --- | --- | --- | --- | --- |
| Cc1c2c(nn1C)COCC1CCC1Cn1c(C(=O)O)c(CCCOc3cccc4ccccc34)c3ccc(Cl)c-2c31 (single isomer, unassigned; enantiomer 2) [Example 79, 3-chloro-4,5-dimethyl-15-{3-[(naphthalen-1-yl)oxy]propyl}-5,7,9,9a,10,11,11a,12-octahydrocyclobuta[3,4]pyrazolo[4′,3′:9,10][1,6]oxazacycloundecino[8,7,6-hi]indole-14-carboxylic acid (Enantiomer 2)] | 8.6e-06 M |  |  |  | EC50 (SUDHL5 cells [1]; listed as 079): 580 nM; EC50 (SUDHL10 cells [2]; listed as 079): 1400 nM; IC50 (AMO-1 cells; listed as 079): 1.7e-06 M; IC50 (SUDHL5 cells [3]; read-out: Cytotox SUDHL5 [M] (median), IC50, median, listed as 079): 7.7e-07 M; IC50 (SUDHL10 cells [4]; read-out: Cytotox SUDHL10 [M] (median), IC50, median, listed as 079): 1.6e-06 M |
| Cc1c2c(nn1C)COCCC(F)(F)Cn1c(C(=O)O)c(CCCOc3cccc4cc(F)ccc34)c3ccc(Cl)c-2c31 (racemic) [Example 93, (rac)-4-Chloro-11,11-difluoro-7-{3-[(6-fluoronaphthalen-1-yl)oxy]propyl}-2,3-dimethyl-2,10,11,12,13,15-hexahydropyrazolo[4′,3′:9,10][1,6]oxazacycloundecino[8,7,6-hi]indole-8-carboxylic acid] | 4.9e-06 M | 220 nM | 1.2e-06 M | 4.3e-07 M | IC50 (SUDHL5 cells [3]; [5]): 3.5e-07 M |
| Cc1c2c(nn1C)COCCn1c(C(=O)O)c(CCCOc3cccc4ccccc34)c3ccc(Cl)c-2c31 (single isomer, unassigned) [Example 88, 11-chloro-9,10-dimethyl-1-{3-[(naphthalen-1-yl)oxy]propyl}-4,5,7,9-tetrahydropyrazolo[4′,3′:7,8][1,4]oxazonino[6,5,4-hi]indole-2-carboxylic acid] | 4.5e-06 M | 4300 nM | 6.7e-06 M | 4e-06 M | EC50 (SUDHL5 cells [1]; Homo sapiens, SU-DHL-5, 3 h): 7400 nM |
| Cc1nn(C)c2c1-c1c(Cl)ccc3c(CCCOc4cccc5ccccc45)c(C(=O)O)n(c13)CCCCOC2 (single isomer, unassigned; enantiomer 1) [Example 3, 4-chloro-1,3-dimethyl-7-[3-(naphthalen-1-yloxy)propyl]-1,10,11,12,13,15-hexahydropyrazolo[4′,3′:9,10][1,6]oxazacycloundecino[8,7,6-hi]indole-8-carboxylic acid (Enantiomer 1)] | 8.3e-06 M | 1600 nM | 2.5e-06 M | 1.5e-06 M | EC50 (SUDHL5 cells [1]; Homo sapiens, SU-DHL-5, 3 h): 710 nM; IC50 (SUDHL5 cells [3]; [5]): 6.5e-07 M |
| CCc1c2c(nn1C)CN(CCCO)CCCCn1c(C(=O)O)c(CCCOc3cccc4cc(F)ccc34)c3ccc(Cl)c-2c31 (racemic) [Example 139, (rac)-4-chloro-3-ethyl-7-{3-[(6-fluoronaphthalen-1-yl)oxy]propyl}-14-(3-hydroxypropyl)-2-methyl-10,11,12,13,14,15-hexahydro-2H-pyrazolo[3′,4′:8,9][1,6]diazacycloundecino[10,11,1-hi]indole-8-carboxylic acid] | 5.7e-06 M |  | 4.4e-07 M |  |  |
| Cc1c2c(nn1C)CN(C)CCCCn1c(C(=O)O)c(CCCOc3cccc4ccccc34)c3ccc(Cl)c-2c31 (racemic) [Example 11, (rac)-4-chloro-2,3,14-trimethyl-7-[3-(naphthalen-1-yloxy)propyl]-10,11,12,13,14,15-hexahydro-2H-pyrazolo[3′,4′:8,9][1,6]diazacycloundecino[10,11,1-hi]indole-8-carboxylic acid] | 4.2e-06 M |  | 7.3e-07 M |  |  |
| Cc1c2c(nn1C)COCCC(F)(F)Cn1c(C(=O)O)c(CCCOc3cccc4ccccc34)c3ccc(Cl)c-2c31 [Example 94, 4-chloro-11,11-difluoro-2,3-dimethyl-7-{3-[(naphthalen-1-yl)oxy]propyl}-2,10,11,12,13,15-hexahydropyrazolo[4′,3′:9,10][1,6]oxazacycloundecino[8,7,6-hi]indole-8-carboxylic acid N-ethylethanamine salt] | 6.3e-06 M |  |  |  | EC50 (SUDHL5 cells [1]; listed as 094): 1600 nM; EC50 (SUDHL10 cells [2]; listed as 094): 3100 nM; IC50 (SUDHL5 cells [3]; read-out: Cytotox SUDHL5 [M] (median), IC50, median, listed as 094): 2.9e-06 M; IC50 (SUDHL10 cells [4]; read-out: Cytotox SUDHL10 [M] (median), IC50, median, listed as 094): 4.5e-06 M |
| CCc1c2c(nn1C)COCCCCn1c(C(=O)O)c(CCCOc3cccc4ccccc34)c3ccc(Cl)c-2c31 (single isomer, unassigned; enantiomer 1) [Example 20, 4-chloro-3-ethyl-2-methyl-7-[3-(naphthalen-1-yloxy)propyl]-2,10,11,12,13,15-hexahydropyrazolo[4′,3′:9,10][1,6]oxazacycloundecino[8,7,6-hi]indole-8-carboxylic acid (Enantiomer 1)] | 2.5e-06 M | 390 nM | 8.7e-07 M | 6.9e-07 M |  |
| Cc1c2c(nn1CCCN1CCN(C)CC1)COCCCCn1c(C(=O)O)c(CCCOc3cccc4ccccc34)c3ccc(Cl)c-2c31 (single isomer, unassigned; enantiomer 2) [Example 50, (−)-4-chloro-3-methyl-2-[3-(4-methylpiperazin-1-yl)propyl]-7-{3-[(naphthalen-1-yl)oxy]propyl}-2,10,11,12,13,15-hexahydropyrazolo[4′,3′:9,10][1,6]oxazacycloundecino[8,7,6-hi]indole-8-carboxylic acid (Enantiomer 2)] | 3.1e-06 M |  |  |  | EC50 (SUDHL5 cells [1]): 360 nM; IC50 (AMO-1 cells): 1.3e-06 M; IC50 (SUDHL5 cells [3]; [7]): 4.4e-07 M |
| CCc1nn(C)c2c1-c1c(Cl)ccc3c(CCCOc4cccc5cc(F)ccc45)c(C(=O)O)n(c13)CCCCOC2 (single isomer, unassigned; enantiomer 1) [Example 34, (+)-4-chloro-3-ethyl-7-{3-[(6-fluoronaphthalen-1-yl)oxy]propyl}-1-methyl-1,10,11,12,13,15-hexahydropyrazolo[4′,3′:9,10][1,6]oxazacycloundecino[8,7,6-hi]indole-8-carboxylic acid (Enantiomer 1)] | 2e-06 M | 930 nM | 1.4e-06 M |  |  |
| CCc1nn(CCN2CCOCC2)c2c1-c1c(Cl)ccc3c(CCCOc4cccc5ccccc45)c(C(=O)O)n(c13)C/C=C\CN(C)C2 (single isomer, unassigned; enantiomer 2) [Example 44, (11Z)-4-chloro-3-ethyl-14-methyl-1-[2-(morpholin-4-yl)ethyl]-7-{3-[(naphthalen-1-yl)oxy]propyl}-10,13,14,15-tetrahydro-1H-pyrazolo[3′,4′:8,9][1,6]diazacycloundecino[10,11,1-hi]indole-8-carboxylic acid-ammonia salt (Enantiomer 2)] | 2.1e-06 M |  |  |  | IC50 (AMO-1 cells): 1.1e-06 M; IC50 (SUDHL5 cells [3]; [7]): 7e-07 M |
| CCc1c2c(nn1C)CN(CCOC)CCCCn1c(C(=O)O)c(CCCOc3cccc4cc(F)ccc34)c3ccc(Cl)c-2c31 (racemic) [Example 131, (rac)-4-chloro-3-ethyl-7-{3-[(6-fluoronaphthalen-1-yl)oxy]propyl}-14-(2-methoxyethyl)-2-methyl-10,11,12,13,14,15-hexahydro-2H-pyrazolo[3′,4′:8,9][1,6]diazacycloundecino[10,11,1-hi]indole-8-carboxylic acid] | 1.3e-06 M | 130 nM |  | 1.5e-07 M |  |
| Cc1c2c(nn1C)COCC1CCC1Cn1c(C(=O)O)c(CCCOc3cccc4ccccc34)c3ccc(Cl)c-2c31 (single isomer, unassigned) [Example 81, 3-chloro-4,5-dimethyl-15-{3-[(naphthalen-1-yl)oxy]propyl}-5,7,9,9a,10,11,11a,12-octahydrocyclobuta[3,4]pyrazolo[4′,3′:9,10][1,6]oxazacycloundecino[8,7,6-hi]indole-14-carboxylic acid] |  |  |  |  | EC50 (SUDHL5 cells [1]; listed as 081): 7400 nM; EC50 (SUDHL10 cells [2]; listed as 081): 6200 nM; IC50 (HMC-1-8 cells; listed as 081): 5.5e-06 M; IC50 (SUDHL5 cells [3]; read-out: Cytotox SUDHL5 [M] (median), IC50, median, listed as 081): 5.8e-06 M; IC50 (SUDHL10 cells [4]; read-out: Cytotox SUDHL10 [M] (median), IC50, median, listed as 081): 8.4e-06 M |
